Measured values taken from ChEMBL document CHEMBL1201862, “PubChem BioAssay data set” (2004).
Activity calls are given as the source filed them.

Tests used:
[1] = viability of uninfected HEp-2 cells – cell-based, HTS, cytotoxicity control for RSV inhibitor project, dose response (AID 2410); format: functional; details: human respiratory syncytial virus
[2] = Luminescence Cell-Based Dose Retest to Confirm Inhibitors of Cancer Stem Cells. [Related pubchem assays (depositor defined):AID2717, AID2721]; format: functional; details: Homo sapiens
[3] = biological target: Cytochrome P450 2D6 (Homo sapiens, UniProt P10635);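 note: CYP2D6 member of a cytochrome P450 panel assay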
Cytochrome P450 2D6, sequence (P10635 whole entry): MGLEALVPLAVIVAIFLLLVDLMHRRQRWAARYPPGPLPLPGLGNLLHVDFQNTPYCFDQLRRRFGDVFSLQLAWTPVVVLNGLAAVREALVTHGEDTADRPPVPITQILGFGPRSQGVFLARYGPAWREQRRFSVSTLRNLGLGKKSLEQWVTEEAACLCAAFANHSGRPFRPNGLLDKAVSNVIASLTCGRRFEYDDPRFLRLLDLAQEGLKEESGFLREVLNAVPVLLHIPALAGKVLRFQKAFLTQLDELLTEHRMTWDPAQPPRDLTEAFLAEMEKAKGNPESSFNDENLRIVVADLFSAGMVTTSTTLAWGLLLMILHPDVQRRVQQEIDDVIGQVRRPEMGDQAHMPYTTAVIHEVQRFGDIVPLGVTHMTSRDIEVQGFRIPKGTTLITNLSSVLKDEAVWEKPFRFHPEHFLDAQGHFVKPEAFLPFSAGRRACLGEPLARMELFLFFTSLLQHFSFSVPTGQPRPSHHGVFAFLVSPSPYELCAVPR

[4] = biological target: FAD-linked sulfhydryl oxidase ALR (Homo sapiens, UniProt P55789); test: ALR-catalysed DTT oxidation blockers – biochemical, H2O2 detection, luminescence, cherry-pick, dose response (AID 493248)
FAD-linked sulfhydryl oxidase ALR, sequence (P55789 whole entry): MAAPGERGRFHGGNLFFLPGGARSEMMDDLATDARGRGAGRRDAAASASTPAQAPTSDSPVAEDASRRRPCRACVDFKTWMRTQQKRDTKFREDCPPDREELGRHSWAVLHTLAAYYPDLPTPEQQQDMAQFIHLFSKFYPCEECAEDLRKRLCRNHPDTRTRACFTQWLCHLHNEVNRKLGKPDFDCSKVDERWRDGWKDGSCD

[5] = test system: Streptococcus sp. 'group A'; test: Streptococcus pyogenes SK(-)GAS viability under kanamycin – luminescence, BacTiterGlo, confirmation, counter-screen for streptokinase expression inhibitor project, dose response (AID 1900); format: functional, organism-based
[6] = biological target: T1, Streptokinase A (Streptococcus pyogenes serotype M1, UniProt P10520); test: viability-normalized secreted streptokinase activity reduction – plasminogen activation absorbance, OD405, dose response (AID 1914); format: functional, Streptococcus pyogenes M1 GAS;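 note: secreted streptokinase activity via plasminogen activation per viability signal from cell pellet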
T1 sequence (P10520 whole entry): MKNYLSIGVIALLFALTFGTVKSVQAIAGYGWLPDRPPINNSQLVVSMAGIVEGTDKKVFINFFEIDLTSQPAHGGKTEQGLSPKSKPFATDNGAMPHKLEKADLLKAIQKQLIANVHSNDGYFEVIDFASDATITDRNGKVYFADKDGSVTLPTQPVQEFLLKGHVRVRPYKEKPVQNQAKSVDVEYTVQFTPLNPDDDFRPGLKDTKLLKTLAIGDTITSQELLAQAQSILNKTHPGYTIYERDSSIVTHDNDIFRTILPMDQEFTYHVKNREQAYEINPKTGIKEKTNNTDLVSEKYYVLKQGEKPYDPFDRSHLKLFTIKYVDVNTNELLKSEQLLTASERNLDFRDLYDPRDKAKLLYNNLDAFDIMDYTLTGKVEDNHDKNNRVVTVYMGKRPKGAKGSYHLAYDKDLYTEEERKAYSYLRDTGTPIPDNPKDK

[7] = test system: Streptococcus; test: GAS UMAA2166 growth inhibition – luminescence, BacTiterGlo, counter-screen for streptokinase expression inhibitor project, dose response (AID 1915); format: functional, organism-based;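 note: potency for reduction of bacterial viability or growth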
[8] = biological target: T2, Cytochrome P450 1A2 (Homo sapiens, UniProt P05177);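 note: PubChem cytochrome P450 panel assay, CYP1A2 panel member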
T2 sequence (P05177 whole entry): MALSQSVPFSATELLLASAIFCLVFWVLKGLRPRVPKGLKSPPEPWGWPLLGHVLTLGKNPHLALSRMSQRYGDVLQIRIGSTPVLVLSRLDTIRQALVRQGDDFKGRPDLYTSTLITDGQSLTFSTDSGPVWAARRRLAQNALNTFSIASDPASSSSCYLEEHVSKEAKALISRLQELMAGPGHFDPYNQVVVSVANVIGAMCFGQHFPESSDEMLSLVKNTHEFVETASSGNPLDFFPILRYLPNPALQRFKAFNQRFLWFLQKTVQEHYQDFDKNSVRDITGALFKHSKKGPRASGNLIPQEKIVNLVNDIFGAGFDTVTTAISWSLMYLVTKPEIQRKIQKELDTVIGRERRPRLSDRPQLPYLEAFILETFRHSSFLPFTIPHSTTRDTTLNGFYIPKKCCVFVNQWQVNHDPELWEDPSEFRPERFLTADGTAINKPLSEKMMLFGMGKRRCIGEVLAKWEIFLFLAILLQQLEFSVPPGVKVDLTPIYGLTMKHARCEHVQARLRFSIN

[9] = biological target: Cytochrome P450 2C9 (Homo sapiens, UniProt P11712)
Cytochrome P450 2C9, sequence (P11712 whole entry): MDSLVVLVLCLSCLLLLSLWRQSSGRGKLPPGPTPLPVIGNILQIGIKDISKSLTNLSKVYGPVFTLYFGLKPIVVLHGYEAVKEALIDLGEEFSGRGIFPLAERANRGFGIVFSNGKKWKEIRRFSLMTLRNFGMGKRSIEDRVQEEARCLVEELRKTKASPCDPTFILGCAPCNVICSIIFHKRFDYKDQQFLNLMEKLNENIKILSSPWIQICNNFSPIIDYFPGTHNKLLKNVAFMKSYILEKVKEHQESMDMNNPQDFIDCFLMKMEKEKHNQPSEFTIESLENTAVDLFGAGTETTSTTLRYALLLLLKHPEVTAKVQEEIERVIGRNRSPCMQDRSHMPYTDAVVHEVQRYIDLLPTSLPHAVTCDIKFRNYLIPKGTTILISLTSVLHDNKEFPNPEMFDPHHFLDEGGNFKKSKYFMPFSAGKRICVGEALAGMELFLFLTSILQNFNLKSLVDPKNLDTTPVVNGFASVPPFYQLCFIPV

[10] = biological target: Cytochrome P450 2C19 (Homo sapiens, UniProt P33261); test: Cytochrome panel assay with activity outcomes. Panel member name: p450-cyp2c19 Compounds with AC50 equal or less than 10 uM are considered active; format: functional
Cytochrome P450 2C19, sequence (P33261 whole entry): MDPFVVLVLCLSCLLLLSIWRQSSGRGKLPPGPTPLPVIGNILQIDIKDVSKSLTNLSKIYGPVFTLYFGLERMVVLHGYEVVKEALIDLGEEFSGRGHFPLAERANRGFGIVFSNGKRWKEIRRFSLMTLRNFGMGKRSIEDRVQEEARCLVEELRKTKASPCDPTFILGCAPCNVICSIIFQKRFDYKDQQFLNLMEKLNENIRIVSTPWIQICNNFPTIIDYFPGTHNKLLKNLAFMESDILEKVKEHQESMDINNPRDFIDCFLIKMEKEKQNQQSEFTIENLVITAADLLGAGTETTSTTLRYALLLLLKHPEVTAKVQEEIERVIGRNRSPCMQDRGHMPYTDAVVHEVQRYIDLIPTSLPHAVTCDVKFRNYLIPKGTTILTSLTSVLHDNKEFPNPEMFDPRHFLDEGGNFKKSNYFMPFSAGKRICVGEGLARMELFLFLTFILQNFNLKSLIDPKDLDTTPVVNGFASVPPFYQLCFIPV

[11] = biological target: T3, Heat shock factor protein 1 (Mus musculus, UniProt P38532); test: decrease of HSF1-responsive luciferase luminescence – cell-based, NIH3T3, dose retest, confirmation (AID 2382); format: functional;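 note: NIH3T3 fibroblasts with HSF1-driven luciferase reporter stressed by proteasome inhibitor MG132; luminescence from HSF1-driven luciferase expression after 8 hours of MG132 stress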
T3 sequence (P38532 whole entry): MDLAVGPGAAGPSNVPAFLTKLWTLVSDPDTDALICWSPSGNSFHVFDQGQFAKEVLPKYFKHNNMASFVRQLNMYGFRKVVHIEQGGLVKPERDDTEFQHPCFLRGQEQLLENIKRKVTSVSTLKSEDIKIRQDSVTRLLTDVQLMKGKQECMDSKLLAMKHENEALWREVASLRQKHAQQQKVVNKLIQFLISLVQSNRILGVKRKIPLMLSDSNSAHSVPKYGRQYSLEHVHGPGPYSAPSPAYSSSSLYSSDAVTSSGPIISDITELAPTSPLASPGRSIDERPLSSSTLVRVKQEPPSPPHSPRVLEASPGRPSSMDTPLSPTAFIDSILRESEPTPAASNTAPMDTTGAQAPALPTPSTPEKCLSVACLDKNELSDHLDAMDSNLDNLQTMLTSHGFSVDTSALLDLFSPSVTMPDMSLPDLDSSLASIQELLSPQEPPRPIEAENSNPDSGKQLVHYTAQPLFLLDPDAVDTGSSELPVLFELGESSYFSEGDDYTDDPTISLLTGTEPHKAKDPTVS

[12] = biological target: T4, RNA-binding protein pos-1 (Caenorhabditis elegans, UniProt G5EF15); test: disruptors of C. elegans POS-1 RNA interaction – biochemical, fluorescence polarization, dose response (AID 1964);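 note: purified POS-1 fused to maltose binding protein made in E. coli; potency of compounds blocking POS-1 binding to fluorescent RNA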
T4 sequence (G5EF15 whole entry): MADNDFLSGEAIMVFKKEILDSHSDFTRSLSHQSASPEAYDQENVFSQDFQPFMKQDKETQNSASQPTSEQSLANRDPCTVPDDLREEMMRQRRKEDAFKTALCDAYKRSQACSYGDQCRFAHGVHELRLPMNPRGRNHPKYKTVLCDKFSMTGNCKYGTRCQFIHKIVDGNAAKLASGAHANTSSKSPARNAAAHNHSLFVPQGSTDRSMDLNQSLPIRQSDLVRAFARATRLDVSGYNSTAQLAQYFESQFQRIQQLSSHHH

[13] = test system: H4; test: Luminescence Cell-Based Dose Response HTS to Identify Activators of 5'UTR Stem-Loop Driven Prion Protein mRNA Translation in H4 Neuroglioblastoma Cells. [Related pubchem assays: 1829 (Project Summary), 1814 (Primary HTS)]; format: functional; details: Homo sapiens

O=C1c2ccccc2C(=O)N1CCCCN(C(=O)c1cc([N+](=O)[O-])cc([N+](=O)[O-])c1)c1ccc(Cl)cc1
CC50 [1]: > 50 µM (active)

CCCOC(=O)C(=O)NNc1ccccc1
AC50 [2]: 0.95 µM (active)

CN1CCN(c2ncnc3ccc(-c4ccccc4Cl)cc23)CC1
AC50 [3]: 25.1 µM (inconclusive)

Cc1cc2c(cc(C(=O)O)n2C)s1
AC50 [4]: 30.9 µM (active)

CC(C)(C)c1ccc(CN(Cc2ccco2)Cc2nnnn2C2CCCC2)cc1
EC50 [5]: 5.71 µM (active) | EC50 [6]: 12.7 µM (active) | EC50 [7]: > 150 µM (not active) | AC50 [3]: 22.4 µM (inconclusive)

N#C/C(=C\c1ccc(N2CCCC2)c([N+](=O)[O-])c1)c1nc2ccccc2[nH]1
AC50 [8]: 11.2 µM (inconclusive)

CN(C)CC/C=C1\c2ccccc2CSc2ccccc21 [DOTHIEPIN]
AC50 [3]: 7.94 µM (inconclusive)

CC(CO)(CO)/N=C\c1cc(I)cc(I)c1O
AC50 [8]: 1.58 µM (inconclusive) | AC50 [9]: 6.31 µM (inconclusive)

Cc1cc(N2CCOCC2)nc2ccc(N=C(S)N3CCCCC3C)cc12 (stereo not given)
CC50 [1]: 18.2 µM (active)

O=C(Nc1cccc(C(F)(F)F)c1)C1CCCN1S(=O)(=O)c1cccc2cccnc12 (stereo not given)
AC50 [3]: 31.6 µM (inconclusive) | AC50 [8]: 3.16 µM (inconclusive) | AC50 [9]: 5.62 µM (inconclusive)

CCCCCn1c(=O)c(C(=O)c2ccccc2)nc2ccccc21
AC50 [3]: 28.2 µM (inconclusive)

C[C@@H](C(=O)Cc1ccc2ccccc2c1)[C@@H]1C[C@@]1(C)[C@@H](NP(=O)(c1ccccc1)c1ccccc1)c1ccccc1
AC50 [8]: 10 µM (inconclusive)

CCCc1cc(O)nc(SCC(=O)Nc2sc(C(N)=O)c(C)c2C(=O)OCCOC)n1
AC50 [2]: 3.6 µM (active)

Cc1cc2c(cc1S(=O)(=O)N1CCN(c3ccc(Cl)cc3)CC1)OCCN2C
CC50 [1]: 41 µM (active)

Cc1ccc(/C=N/n2c(S)nnc2-c2cccs2)cc1
AC50 ([10]; read-out: AC50): 3.55 µM (inconclusive) | AC50 [3]: 5.01 µM (inconclusive)

Oc1ccccc1-c1nnc(-c2ccc(C(F)(F)F)cc2)o1
EC50 [11]: > 195 µM (not active) | AC50 ([10]; read-out: AC50): 39.8 µM (inconclusive)

CC(C)OC(=O)c1cc2c(OC[C@@H](O)CNC(C)(C)C)cccc2[nH]1
AC50 [3]: 15.8 µM (inconclusive) | AC50 [8]: 31.6 µM (inconclusive)

C/C(CC(=O)Nc1ccc(Cl)c(C(F)(F)F)c1)=N\NC(=O)c1cc2ccccc2cc1O
EC50 [5]: 1.57 µM (active) | EC50 [6]: > 150 µM (not active) | EC50 [7]: 8.14 µM (active) | AC50 [2]: 8.61 µM (active)

CS(=O)(=O)Nc1cccc(-c2nc(NCCN3CCOCC3)c3ccccc3n2)c1
AC50 [8]: 25.1 µM (inconclusive)

C(=N\N=C(\Nc1ccccc1)c1ccccn1)/c1ccccn1
EC50 [12]: > 300 µM (inconclusive)

N=C(N)c1ccc(/N=N\c2c(O)ccc3c2[nH]c2ccccc23)cc1
AC50 [3]: 5.01 µM (inconclusive)

COc1cccc(Cn2c(=O)c(-c3cc(F)cc(F)c3)nc3cnc(N4CCNCC4)nc32)c1
AC50 ([10]; read-out: AC50): 39.8 µM (inconclusive) | AC50 [3]: 39.8 µM (inconclusive)

CCCNC(=O)N1N=C(c2ccc(N)cc2)c2cc3c(cc2[C@H]1C)OCO3
AC50 [3]: 25.1 µM (inconclusive)

CC1(C)Cc2c(sc(NC(=O)Nc3ccccc3)c2C(N)=O)CO1
EC50 [13]: > 120 µM (not active)

COc1cccc(NC(=O)COC(=O)c2nc3nccc(C)n3n2)c1
AC50 ([10]; read-out: AC50): 31.6 µM (inconclusive) | AC50 [3]: 22.4 µM (inconclusive) | AC50 [8]: 17.8 µM (inconclusive)

COc1ccc(CN2C(=O)CN(C3CCCCCC3)C(=O)C2c2ccc(OC)c(OC)c2)cc1 (stereo not given)
AC50 [8]: 35.5 µM (inconclusive)

COCCn1c(=O)c(-c2cccs2)nc2cnc(N3CCNCC3)nc21
AC50 ([10]; read-out: AC50): 25.1 µM (inconclusive)

Cc1nc(N/N=C/c2ccc(O)cc2)c2cnn(-c3ccccc3)c2n1
CC50 [1]: 42.8 µM (active)

Cc1ccc(-c2cn3c(n2)SCC3)cc1
AC50 [4]: 0.513 µM (active)

COCCCN1C(=O)C(O)=C(C(=O)c2ccc(OC(C)C)c(C)c2)C1c1ccncc1 (stereo not given)
AC50 ([10]; read-out: AC50): 11.2 µM (inconclusive) | AC50 [9]: 35.5 µM (inconclusive)

CC(C)C(NS(=O)(=O)c1cccc2nsnc12)C(=O)N1CCc2ccccc2C1 (stereo not given)
AC50 ([10]; read-out: AC50): 6.31 µM (inconclusive) | AC50 [9]: 3.55 µM (inconclusive)

CN=C(S)N1CCN(c2ccc(Cl)c(Cl)c2)CC1
CC50 [1]: 21.3 µM (active)

CC(NC(=O)c1ccc(N2CCNCC2)c([N+](=O)[O-])c1)C12CC3CC(CC(C3)C1)C2 (stereo not given)
CC50 [1]: 16 µM (active) | AC50 [2]: 10.2 µM (active)

Cc1ccc2nc(C)cc(N/N=C/c3ccccc3O)c2c1
AC50 [4]: 4.03 µM (active)

CCc1nc(N2CCC(C)CC2)c2oc3ccccc3c2n1
AC50 [2]: 4.63 µM (active)

O=C(c1ccc(F)cc1)C1CCN(CCn2c(=S)[nH]c3ccccc3c2=O)CC1 [ALTANSERIN]
AC50 [3]: 10 µM (inconclusive) | AC50 [8]: 15.8 µM (inconclusive) | AC50 [9]: 25.1 µM (inconclusive)

Cc1c(C(=O)N(C)C)c2cc(Cl)ccc2n1O
AC50 [4]: 0.722 µM (active)

C=CCc1ccc(OCCOCCOc2cccc3ccc(C)nc23)c(OC)c1
CC50 [1]: 29.6 µM (active)

COc1ccc(CNc2ncncc2-c2c(C)noc2C)c(OC)c1
AC50 [8]: 25.1 µM (inconclusive)

COc1ccc(C2Nc3ccccc3C(=O)N2Cc2ccco2)cc1COc1ccc([N+](=O)[O-])cc1 (stereo not given)
AC50 [3]: 3.98 µM (inconclusive)

CCc1nc(N[C@H](C(=O)O)C(C)CC)c2oc3ccccc3c2n1 (stereo not given in full)
AC50 [10]: inconclusive | AC50 [9]: 0.00891 µM (inconclusive)

COCCNC(=S)N/N=C(\C)c1ccc(OC(F)F)cc1
CC50 [1]: > 50 µM (active)

CN(CC(=O)Nc1ccc(Cl)cc1)CC(=O)Nc1cccc(Br)c1
CC50 [1]: 16.2 µM (active)

CN(C)CCNC(=O)C(C(=O)c1ccc(F)cc1)n1ccccc1=O (stereo not given)
AC50 [8]: 0.631 µM (inconclusive)

Cc1nc2cc(C(F)(F)F)ccc2n1CCNc1nc(-c2cc(Cl)c(N)c(Cl)c2)cs1
CC50 [1]: 19.7 µM (active)

O=[N+]([O-])c1ccc(S(=O)(=O)Nc2cccc(-c3ccc(N4CCOCC4)nn3)c2)cc1
CC50 [1]: > 50 µM (active)

C1=C(c2sc3ccccc3c2-c2ccc(OCCN3CCOCC3)cc2)CCCC1
AC50 [2]: 2.71 µM (active)

CC(/C=N/NC(=O)c1cccc([N+](=O)[O-])c1)=C\c1ccccc1
AC50 [8]: 1.78 µM (inconclusive)

CCn1c(C)[n+](CCCS(=O)(=O)[O-])c2cc(Cl)c(Cl)cc21
AC50 [10]: inconclusive
